Results taken from ChEMBL document CHEMBL4725353, “Discovery of Pyrido[2,3-b]indole Derivatives with Gram-Negative Activity Targeting Both DNA Gyrase and Topoisomerase IV” (J Med Chem, 2020).
In brackets after ≈: the same amount, converted by molar mass.

What was measured:
physchem = details: PBS, pH 6.5
Description: Solubility of compound in PBS at pH 6.5 incubated for over night by HPLC-UV based lyophilization solubility assay

Escherichia coli [1] = assay: microbe, parasite or virus in culture; details: ATCC 29213
Description: Antibacterial activity against Escherichia coli ATCC 29213 assessed as reduction in microbial growth preincubated for 20 to 24 hrs followed by subculture in absence of compound and measured on day 4 CLSI based broth microdilution susceptibility method

Escherichia coli [2] = assay: microbe, parasite or virus in culture; details: ATCC 25922
Description: Antibacterial activity against Escherichia coli ATCC 25922 assessed as reduction in microbial growth preincubated for 20 to 24 hrs followed by subculture in absence of compound and measured on day 4 CLSI based broth microdilution susceptibility method

in vitro = details: mouse, liver microsomes
Description: Intrinsic clearance in mouse liver microsomes preincubated for 10 mins followed by NADPH regenerating system addition and measured up to 30 mins by LC/MS-MS analysis

solubility (physchem) | MIC (Escherichia coli [1]) | MIC (Escherichia coli [2]) | CLint scaled at 0.5 h (in vitro) | SMILES
< 0.3 µg/mL | < 0.25 µg/mL | 1 µg/mL (≈ 2.35 µM) |  | CCNc1cc(F)cc2c1[nH]c1ncc(-c3cncc(C#N)c3)c(-n3ccc(CC)n3)c12
 |  | 2 µg/mL (≈ 3.72 µM) |  | CCNc1cc(F)cc2c1[nH]c1ncc(-c3cncc(C#N)c3)c(-n3cc(C(=O)OCC)c(C(F)(F)F)n3)c12
 |  | > 16 µg/mL |  | CCNc1cc(F)cc2c1[nH]c1ncc(-c3cncc(C#N)c3)c(-n3cc(C(N)=O)c(C(F)(F)F)n3)c12
 | 0.25 µg/mL (≈ 0.537 µM) | > 16 µg/mL |  | CCNc1cc(F)cc2c1[nH]c1ncc(-c3cncc(C#N)c3)c(-n3cnc(C(F)(F)F)c3)c12
< 1 µg/mL | < 0.016 µg/mL | 2 µg/mL (≈ 3.59 µM) | 43.5 mL/min/kg | CCNc1cc(F)cc2c1[nH]c1ncc(-c3cnc(OCC(C)(C)C(=O)O)nc3)c(-n3ccc(C(F)(F)F)n3)c12
 |  | > 16 µg/mL |  | CCNc1cc(F)cc2c1[nH]c1ncc(-c3cncc(C#N)c3)c(-n3cc(C(=O)O)c(C(F)(F)F)n3)c12
< 1 µg/mL | < 0.016 µg/mL | 1 µg/mL (≈ 2.15 µM) |  | CCNc1cc(F)cc2c1[nH]c1ncc(-c3cncc(C#N)c3)c(-n3cc(C(F)(F)F)cn3)c12
< 1 µg/mL | < 0.016 µg/mL | 0.5 µg/mL (≈ 1.04 µM) |  | CCNc1cc(F)cc2c1[nH]c1ncc(-c3cncc(C#N)c3)c(-c3nc(C(F)(F)F)cs3)c12
< 1 µg/mL | < 0.25 µg/mL | 1 µg/mL (≈ 2.24 µM) |  | CCNc1cc(F)cc2c1[nH]c1ncc(-c3cncc(C#N)c3)c(-n3ccc(C(F)F)n3)c12
 | 2 µg/mL (≈ 4.69 µM) | 16 µg/mL (≈ 37.5 µM) |  | CCNc1cc(F)cc2c1[nH]c1ncc(-c3cncc(C#N)c3)c(-n3ccc(CN)n3)c12
 | > 16 µg/mL | > 16 µg/mL |  | CCNc1cc(F)cc2c1[nH]c1ncc(-c3cncc(C#N)c3)c(-n3ccc(C(=O)O)n3)c12
 |  | > 16 µg/mL |  | CCNc1cc(F)cc2c1[nH]c1ncc(-c3cncc(C#N)c3)c(-n3nc(C(F)(F)F)cc3CO)c12
 |  | 8 µg/mL (≈ 16.7 µM) |  | CCNc1cc(F)cc2c1[nH]c1ncc(-c3cncc(C#N)c3)c(-n3nc(C(F)(F)F)cc3C)c12
< 1 µg/mL |  | 2 µg/mL (≈ 4.09 µM) |  | CCNc1cc(F)cc2c1[nH]c1ncc(-c3cncc(C#N)c3)c(-n3nc(C(F)F)c4c3CNC4)c12
< 1 µg/mL | < 0.25 µg/mL | 2 µg/mL (≈ 4.86 µM) |  | CCNc1cc(F)cc2c1[nH]c1ncc(-c3cncc(C#N)c3)c(-n3ccc(C)n3)c12
 | 0.063 µg/mL (≈ 0.133 µM) | > 16 µg/mL |  | CCNc1cc(F)cc2c1[nH]c1ncc(-c3cncc(C#N)c3)c(-c3cccc(C(F)(F)F)c3)c12
 |  | 4 µg/mL (≈ 9.12 µM) |  | CCNc1cc(F)cc2c1[nH]c1ncc(-c3cncc(C#N)c3)c(-n3cc4c(n3)CNC4)c12
133 µg/mL (≈ 240 µM) | < 0.016 µg/mL | 4 µg/mL (≈ 7.21 µM) |  | CCNc1cc(F)cc2c1[nH]c1ncc(-c3cnc(NCC4(C(=O)O)CC4)nc3)c(-n3ccc(C(F)(F)F)n3)c12
 | < 0.25 µg/mL | < 0.25 µg/mL |  | CCNc1cc(F)cc2c1[nH]c1ncc(-c3cnc(C(=O)NC)nc3)c(-n3ccc(C(F)(F)F)n3)c12
 |  | 2 µg/mL (≈ 4.42 µM) | 20.2 mL/min/kg | CCNc1cc(F)cc2c1[nH]c1ncc(-c3cncc(C#N)c3)c(-n3ncc4c3CNCC4)c12
 |  | 4 µg/mL (≈ 8.07 µM) |  | CCNc1cc(F)cc2c1[nH]c1ncc(-c3cncc(C#N)c3)c(-n3cc(CO)c(C(F)(F)F)n3)c12
< 1 µg/mL | < 0.016 µg/mL | 0.125 µg/mL (≈ 0.296 µM) |  | CCNc1cc(F)cc2c1[nH]c1ncc(-c3cncc(C#N)c3)c(-n3ccc(C#N)n3)c12
 | 4 µg/mL (≈ 8.24 µM) | 16 µg/mL (≈ 33 µM) |  | CCNc1cc(F)cc2c1[nH]c1ncc(-c3cnc(C(=O)O)nc3)c(-n3ccc(C(F)(F)F)n3)c12
< 0.7 µg/mL | < 0.25 µg/mL | > 16 µg/mL |  | CCNc1cc(F)cc2c1[nH]c1ncc(-c3cncc(C#N)c3)c(-n3ccc(C(C)C)n3)c12
 | < 0.016 µg/mL | 0.5 µg/mL (≈ 1.1 µM) |  | CCNc1cc(F)cc2c1[nH]c1ncc(-c3cnc(C)nc3)c(-n3ccc(C(F)(F)F)n3)c12
200 µg/mL (≈ 442 µM) |  | 4 µg/mL (≈ 8.84 µM) | 52.1 mL/min/kg | CCNc1cc(F)cc2c1[nH]c1ncc(-c3cncc(C#N)c3)c(-n3ncc4c3CCNC4)c12
< 0.3 µg/mL | < 0.25 µg/mL | > 16 µg/mL |  | CCNc1cc(F)cc2c1[nH]c1ncc(-c3cncc(C#N)c3)c(-n3ccc(C(C)(C)C)n3)c12
